Results reported in article PMC10374445 (Nature Chemical Biology, 2023).

Experiments:
CydDC [1] = molecular target: T1, CydDC (Escherichia coli, UniProt P23886+P29018); assay: single-particle cryo-EM structure; type: binding; conditions: IFasym apo state, active turnover
T1 construct: gene cydC; full-length heterodimer, C-terminal His6 on CydC, from pTTQ18 (pcydDC) in E. coli BL21 pLysS (DE3); purified in DDM (ATPase assays) or LMNG (cryo-EM)

CydDC [2] = molecular target: T2, CydDC (Escherichia coli, UniProt P23886+P29018, P23886:E500Q); assay: single-particle cryo-EM structure; conditions: Occ return apo state; both nucleotide-binding sites; turnover dataset with heme, ATP and Mg2+
T2 construct: gene cydC; full-length heterodimer, C-terminal His6 on CydC, from pTTQ18 (pcydDC) in E. coli BL21 pLysS (DE3); purified in DDM (ATPase assays) or LMNG (cryo-EM)
T2 sequence (P23886 whole entry E500Q): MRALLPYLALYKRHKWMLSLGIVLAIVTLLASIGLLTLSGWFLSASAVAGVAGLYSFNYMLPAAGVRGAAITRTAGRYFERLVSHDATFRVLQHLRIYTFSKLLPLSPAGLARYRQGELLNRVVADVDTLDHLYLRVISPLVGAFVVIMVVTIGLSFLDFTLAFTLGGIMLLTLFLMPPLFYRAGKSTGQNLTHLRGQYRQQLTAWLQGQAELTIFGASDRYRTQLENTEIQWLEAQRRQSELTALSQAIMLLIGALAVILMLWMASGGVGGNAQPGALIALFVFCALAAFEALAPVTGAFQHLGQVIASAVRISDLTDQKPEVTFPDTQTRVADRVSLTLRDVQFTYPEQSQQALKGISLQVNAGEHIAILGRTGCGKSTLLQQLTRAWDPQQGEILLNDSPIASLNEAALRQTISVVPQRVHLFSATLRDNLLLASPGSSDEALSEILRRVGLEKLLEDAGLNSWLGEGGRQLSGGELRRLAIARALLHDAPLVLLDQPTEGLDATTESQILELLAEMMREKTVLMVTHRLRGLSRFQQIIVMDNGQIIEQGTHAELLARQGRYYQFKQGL
T2 sequence (P29018 whole entry): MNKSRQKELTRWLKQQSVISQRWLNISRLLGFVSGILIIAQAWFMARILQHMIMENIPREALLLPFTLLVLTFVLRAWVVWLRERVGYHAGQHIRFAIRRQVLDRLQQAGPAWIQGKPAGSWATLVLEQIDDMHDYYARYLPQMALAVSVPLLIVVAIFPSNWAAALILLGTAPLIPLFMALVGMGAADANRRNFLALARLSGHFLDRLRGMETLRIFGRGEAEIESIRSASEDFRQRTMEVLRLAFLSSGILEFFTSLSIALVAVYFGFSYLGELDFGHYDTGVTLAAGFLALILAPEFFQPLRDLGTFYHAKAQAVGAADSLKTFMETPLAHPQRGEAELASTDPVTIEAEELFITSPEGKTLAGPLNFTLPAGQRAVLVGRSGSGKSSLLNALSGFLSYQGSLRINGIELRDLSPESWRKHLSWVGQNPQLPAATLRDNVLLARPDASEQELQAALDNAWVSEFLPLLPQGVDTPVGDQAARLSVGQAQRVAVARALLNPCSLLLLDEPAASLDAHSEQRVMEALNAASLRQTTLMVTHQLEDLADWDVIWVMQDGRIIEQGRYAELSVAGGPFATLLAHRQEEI

[3] = system: Nc1ncnc2c1ncn2[C@@H]1O[C@H](COP(=O)(O)OP(=O)(O)OP(=O)(O)O)[C@@H](O)[C@H]1O; assay: purified protein; conditions: 0.3 µM heme, 3 mM MgCl2, pH 7.0, 37 °C, 0.02% DDM

T1 sequence (P23886 whole entry): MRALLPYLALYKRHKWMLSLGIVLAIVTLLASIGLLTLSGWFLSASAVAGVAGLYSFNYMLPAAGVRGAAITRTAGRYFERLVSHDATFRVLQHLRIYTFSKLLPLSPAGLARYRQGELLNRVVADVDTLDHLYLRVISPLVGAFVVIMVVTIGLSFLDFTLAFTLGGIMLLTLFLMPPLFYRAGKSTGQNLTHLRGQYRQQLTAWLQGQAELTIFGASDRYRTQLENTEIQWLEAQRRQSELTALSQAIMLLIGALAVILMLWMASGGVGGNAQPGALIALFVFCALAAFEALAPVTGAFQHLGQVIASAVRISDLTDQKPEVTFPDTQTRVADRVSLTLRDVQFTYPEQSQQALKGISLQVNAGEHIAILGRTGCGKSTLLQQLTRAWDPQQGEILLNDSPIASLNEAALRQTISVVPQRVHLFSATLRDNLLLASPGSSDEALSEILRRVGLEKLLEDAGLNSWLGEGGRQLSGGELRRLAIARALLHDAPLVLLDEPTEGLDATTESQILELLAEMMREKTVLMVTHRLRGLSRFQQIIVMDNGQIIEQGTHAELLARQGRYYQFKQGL
T1 sequence (P29018 whole entry): as the sequence (P29018 whole entry) above

Nc1ncnc2c1ncn2[C@@H]1O[C@H](COP(=O)(O)OP(=O)(O)O)[C@@H](O)[C@H]1O [ADP]
single-particle cryo-EM structure (CydDC [1]; site NBS of CydC, with Pi): obtained from the turnover dataset of CydDC to ADP and Pi

Nc1ncnc2c1ncn2[C@@H]1O[C@H](COP(=O)(O)OP(=O)(O)OP(=O)(O)O)[C@@H](O)[C@H]1O [ATP]
single-particle cryo-EM structure (CydDC [1]; degenerate site NBS of CydD): NBS^D conformations in the Occreturnapo (ATP), IFasymapo (ATP) | single-particle cryo-EM structure (CydDC [2]): The left panel shows a close-up view of ATP bound to NBS^D

CydDC (Escherichia coli K-12)
Km [3]: 91.9 ± 9.7 µM
